Read-outs that look alike come from different tables or passages of the source.
What was measured:
[1] = target: M^Pro-eGFP fusion protein in 293T cells (Severe acute respiratory syndrome coronavirus 2, UniProt P0DTD1); test: cell-based; design: species or system SARS-CoV-2
[2] = target: SARS-CoV-2 main protease (M^Pro) (Severe acute respiratory syndrome coronavirus 2, UniProt P0DTD1); test: In vitro M^Pro enzymatic inhibition with fluorogenic substrate Sub3; type: biochemical; settings: 20 nM M^Pro, 10 μM Sub3, 30 min preincubation; read-out: Enzymatic IC50
[3] = tested on: SARS-CoV-2 (USA-WA1/2020); test: Plaque reduction neutralization test in Vero E6 cells; type: cell-based; settings: SARS-CoV-2 USA-WA1/2020, Vero E6 cells, 3 days, read-out: Antiviral EC50
[4] = In vitro metabolic stability in human liver microsomes; settings: pH 7.4
Cytotoxicity, MTT assay = type: cell-based; settings: human, HEK293T cells, 293T cells
Protocol: Because of their high antiviral potency, MPI60 and MPI61 were advanced to characterizations of cytotoxicity and in vitro metabolic stability. For the cytotoxicity characterization, we used 293T cells and the MTT assay.[42] […] These CC50 values are similar to that of nirmatrelvir and lead to high calculated selectivity indices (CC50/antiviral EC50) for both compounds. The in vitro metabolic stability analysis for MPI60 and MPI61 was conducted using human liver microsomes.
HEK293T cells were seeded in 96-well plates and incubated at 37 °C and 5% CO2 for 24 h. The cells were then treated with different concentrations (200, 100, 50, 25, 12.5, 6.25, 3.125, 1.5625, 0.78125, and 0 μM) of the tested compound in triplicate for 48 h. Cell viability was assessed by the MTT assay to determine CC50. For the MTT assay, 20 μL MTT (5 mg/mL) was added to each well and incubated with cells for 4 h. After that, the supernatant was removed, and 200 μL DMSO was added per well. The absorbance was recorded at 490 nm. The CC50 value was determined by plotting the normalized cell viability (%) against the compound concentration.
Figure S5. Cytotoxicity curves of MPI60 and MPI61 in 293T cells tested by the MTT assay.
(1 picture or pasted object on this page, not shown here)

COVID-19 patients = tested on: COVID-19 patients; design: method as in PMID 34914868; settings: patients with mild and moderate COVID-19; cited from earlier work
[5] = Severe acute respiratory syndrome coronavirus 2, Vero C1008, 72 h

## O=C[C@H](C[C@@H]1CCNC1=O)NC(=O)[C@@H]1CC2(CCC2)CN1C(=O)OCc1ccccc1 [MPI59, Benzyl (S)-7-(((S)-1-Oxo-3-((S)-2-oxopyrrolidin-3-yl)propan-2-yl)carbamoyl)-6-azaspiro[3.4]octane-6-carboxylate]
[1]; read-out: Cellular EC50
  EC50: 430 nM
[2]
  IC50: 30 nM
[3]
  EC50: 560 nM
[3]; [5]
  EC50: < 1000 nM

## O=C[C@H](C[C@@H]1CCNC1=O)NC(=O)C1CC2(CCCC2)CN1C(=O)OCc1ccccc1 (stereo partly drawn) [MPI60, Benzyl 3-(((S)-1-Oxo-3-((S)-2-oxopyrrolidin-3-yl)propan-2-yl)carbamoyl)-2-azaspiro[4.4]nonane-2-carboxylate]
[4]
  CLint scaled at 5 μM: 16 mL/min/kg
  half-life at 5 μM: 109 min
Cytotoxicity, MTT assay
  CC50 at 48 h: 95 µM
[1]; read-out: Cellular EC50
  EC50: 88 nM
[1]; read-out: cellular EC50
  EC50: < 100 nM
[2]
  IC50: 22 nM

## O=C[C@H](C[C@@H]1CCNC1=O)NC(=O)C1CC2(CCCCC2)CN1C(=O)OCc1ccccc1 (stereo partly drawn) [MPI61, Benzyl 3-(((S)-1-Oxo-3-((S)-2-oxopyrrolidin-3-yl)propan-2-yl)carbamoyl)-2-azaspiro[4.5]decane-2-carboxylate]
[4]
  CLint scaled at 5 μM: 45 mL/min/kg
  half-life at 5 μM: 38 min
Cytotoxicity, MTT assay
  CC50 at 48 h: 230 µM
[1]; read-out: Cellular EC50
  EC50: 85 nM
[1]; read-out: cellular EC50
  EC50: < 100 nM
[2]
  IC50: 49 nM

## CC1(C)[C@@H]2[C@@H](C(=O)N[C@H](C=O)C[C@@H]3CCNC3=O)N(C(=O)CCC3CCCCC3)C[C@@H]21 [MPI65, (1R,2S,5S)-3-(3-Cyclohexylpropanoyl)-6,6-dimethyl-N-((S)-1-oxo-3-((S)-2-oxopyrrolidin-3-yl)propan-2-yl)-3-azabicyclo[3.1.0]hexane-2-carboxamide]
[1]; read-out: Cellular EC50
  EC50: 560 nM
[2]
  IC50: 41 nM
[3]
  EC50: 960 nM
[3]; [5]
  EC50: < 1000 nM

## CC(C)C(=O)OC[C@H]1O[C@@H](n2ccc(NO)nc2=O)[C@H](O)[C@@H]1O [molnupiravir]
COVID-19 patients
  reduced the risk of hospitalization and death compared to placebo: 50%
